Reference: patent US20240400692A1, “CELIAC DISEASE EPITOPES” (NEXTERA AS, priority 2021, published 2024)

Legend:
chymotrypsin = target: T1, chymotrypsin (Bos taurus, UniProt P00766); assay: In vitro chymotrypsin digest and mass spectrometry of recombinant gliadin; conditions: chymotrypsin 200:1 (w:w), 37° C., 24h; MS; FIG. 9E
T1 construct: purchased Sigma; host or cells: substrate gliadin: E. coli BL21 (DE3)pLysS, made by Genscript
Source text: Assessment of in vitro chymotrypsin proteolysis of the A0A0E3SZN6_TRIUA protein. The T. aestivum Q9M4L6_WHEAT (A), T. urartu A0A0E3SZN6_TRIUA (B) and T. aestivum Q9FUW7_WHEAT (C) proteins where produced and affinity purified from E. coli, followed by in vitro chymotrypsin digest and mass spectrometry analysis of the resulting peptide segments (D, E and F). The anticipated 9-mer core regions of the relevant epitopes are indicated by enumeration (D, E and F). Panel A: SDS-PAGE and Western blot analysis of Q9M4L6_WHEAT. Lane M1: Protein Marker, GenScript, Cat. No. M00516, Lane M2: Protein Marker, GenScript, Cat. No. M00521, Lane 1: BSA ([…]), Lane 2: Q9M4L6_WHEAT (Reducing condition, […]), Lane 3: Q9M4L6_WHEAT (Non-reducing condition, 2.00 μg), Lane 4: Q9M4L6_WHEAT (Reducing condition), Lane 5: Q9M4L6_WHEAT (Non-reducing condition), Primary antibody: Mouse-anti-His mAb (GenScript, Cat. No. A00186). Panel B: SDS-PAGE and Western blot analysis of A0A0E3SZN6_TRIUA. […]
Recombinant gliadins were in vitro chymotrypsin digested essentially as described (Molberg O, et al., Methods Mol Med. 2000; 41:105-24). […] MS spectra were analyzed by using the PEAKS studio software (Bioinformatics Solutions Inc.) searched against a custom databased made by the respective gliadin Uniprot accession codes.

[1] = system: T cells in HLA-DQ2.5 typed PBMCs; assay: Intracellular IFN-γ flow assay of peptide-stimulated PBMCs; assay type: cell-based, human; conditions: HC donor 557; 20 μM peptide; 48h; FIG. 14B
[2] = system: T cells in HLA-DQ2.5 typed PBMCs; assay: as above; assay type: cell-based, human; conditions: for expansion of IFN-γ positive cells in the CD3+/CD4− cell population / expansion of IFN-γ positive CD4 T cells, CeD donor: 20 μM peptide; for expansion of IFN-γ positive cells in the CD3+/CD4− cell population / expansion of IFN-γ positive CD4 T cells, CeD donor / presence of response in tested CeD PBMC material / responses in healthy controls: 48h; for expansion of IFN-γ positive cells in the CD3+/CD4− cell population: FIG. 14C; for peptide reactivity, CeD donor 595: no statistical difference; for expansion of IFN-γ positive CD4 T cells, CeD donor: CeD donor 595, average, FIG. 14B; for presence of response in tested CeD PBMC material: CeD donors 585, 595 and 600; for presence of response in tested CeD PBMC material / responses in healthy controls: 20 μM; for responses in healthy controls: two HCs (557 and 558), FIG. 15B
Source text: Intracellular IFNγ flow assessment of CD4 T cell peptide stimulatory capacity using PBMCs. Cryopreserved HLA-DQ2.5 typed PBMCs from confirmed healthy controls (HC) and CeD patients were purchased (HemaCare-Cellero) and used in autologous in vitro T cell peptide stimulation assays followed by intracellular IFNγ staining in flow. (A) PBMCs from CeD donor 595 were used to set intracellular IFNγ baseline detection gates on CD3/CD4 T cells using anti-IFNγ-PE. (B and C) Bar graph representing intracellular IFNγ detection in CD4+/IFNγ+(B) and CD4−/IFNγ+(C) gates as illustrated in A. PBMCs from CeD donor 595 and HC 575 were stimulated with 20 μM DQ2.5-glia 33-mer (N-[…]-C(SEQ ID NO:59)) and A0A0E3SZN6_p6E_long (N-[…]-C(SEQ ID NO:30)), for 48h followed by intracellular T cell IFNγ detection.
Intracellular IFN-γ flow assessment of CD4 T cell peptide stimulatory capacity using PBMCs. Cryopreserved HLA-DQ2.5 typed PBMCs from confirmed healthy controls (HC) and CeD patients were purchased (HemaCare-Cellero) and used in autologous in vitro T cell peptide stimulation assays followed by intracellular IFN-γ staining in flow. Intracellular IFN-γ baseline detection gates on CD3/CD4 T cells using anti-IFN-γ-PE were set as in FIG. 14.
PBMCs from CeD donors (585, 595 and 600) and HCs (557 and 558) were stimulated with 20 μM DQ2.5-glia 33-mer (N-[…]-C(SEQ ID NO:59)) and A0A0E3SZN6_p6E_long (N-[…]-C(SEQ ID NO:30)), for 48h followed by intracellular T cell IFN-γ detection (A and B). Values are presented as mean values and ±SEM.
Peptide-stimulated PBMCs were assessed for intracellular IFN-γ following reagents and the standard protocol from BioLegend (https://www.biolegend.com/). Briefly, cryopreserved human HLA-DQ2.5^+ PBMCs (HemaCare-Cellero) where gently thawed and washed in ice-cold PBS before resuspended into RPMI1640 supplemented with 10% FCS (v/v) before volumes of 1 ml (about 2×10^7 cells) were aliquoted into a 24-well microtiter plate (NUNC). One set of wells received either 20 μM of peptide (either A0A0E3SZN6_p6E_long ([…] (SEQ ID NO:30)) or 33-mer ([…] ([…]))). […] The cells were grown at standard conditions at 37° C. for 36h before Brefaldin A (BioLegend) and Monensin (BioLegend) was added, and incubation continued for another 12 h. The cells were then assessed for intracellular IFN-γ by flow. Data was acquired on a BD Accuri C6 cytometer (BD Biosciences) and analyzed using FlowJo software V10 (Tree Star).

107 antibody = assay: FACS of antibody binding to peptides pulsed onto DQ2.5+ Raji cells, 107 antibody; assay type: cell-based; conditions: 50 μM peptide pulsed onto human DQ2.5+ Raji cells
Method: (§1) Assessment of antibody binding to the A0A0E3SZN6_TRIUA epitope candidate. […] The indicated peptides (50 μM) were pulsed onto human DQ2.5*Raji cells and antibody binding was tested in FACS as described (B).
(§2) Assessment of antibody binding to the physiological relevant forms of the A0A0E3SZN6_TRIUA epitope candidate. The T. urartuA0A0E3SZN6_TRIUA (A) and T. aestivum Q9M4L6_WHEAT (B) sequences were in silico digested with tryspin and chymotrypsin, and the relevant digested fragments shown underlined (A and B). […] The known P positions are indicated (C). The indicated peptides were pulsed (50 μM) onto human DQ2.5*Raji cells and antibody binding was tested in FACS as described (D).
(§3) To identify putative gliadin-derived sequences different from, but with similarity to, the 30 DOQ.2.5-glia-α1a epitope (PFPQP{right arrow over (E)}LPY (SEQ ID NO:4)), the UniProtKB protein database was searched using the ScanProsite tool (https://prosite.expasyorg/scanprosite/). […] More specifically, we fixed the proline (P) in p1, the glutamine (Q) in p6, the tyrosine (Y) in p9, and P was disallowed in the position p10 after the p9 Y (underlined). To focus the output of the searches, we restricted the output to the Triticum taxonomic group. […] In some cases, Q residues were exchanged with glutamate (E) in the peptide synthesis in order to mimic positional deamidation.

4.7C antibody = assay: FACS of antibody binding to peptides pulsed onto DQ2.5+ Raji cells, 4.7C antibody; assay type: cell-based; conditions: 50 μM peptide pulsed onto human DQ2.5+ Raji cells
Method: as §1, §2, §3

[3] = A0A0E3SZN6 peptide versus 33-mer, FIG. 15A

4.7C antibody, sequence (as listed by the source, other chains not shown): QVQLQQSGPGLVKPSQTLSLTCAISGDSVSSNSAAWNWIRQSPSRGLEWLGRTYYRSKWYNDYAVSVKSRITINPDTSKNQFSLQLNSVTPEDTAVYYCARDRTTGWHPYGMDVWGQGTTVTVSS
4.7C antibody, sequence (as listed by the source, other chains not shown): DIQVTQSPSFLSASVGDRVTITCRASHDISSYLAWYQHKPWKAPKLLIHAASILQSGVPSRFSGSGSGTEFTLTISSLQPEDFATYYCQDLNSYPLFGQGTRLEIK
107 antibody, sequence (as listed by the source, other chains not shown): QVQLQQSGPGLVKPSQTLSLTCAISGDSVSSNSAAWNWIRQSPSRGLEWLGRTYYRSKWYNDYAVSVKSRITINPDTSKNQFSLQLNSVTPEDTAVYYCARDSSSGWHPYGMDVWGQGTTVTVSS

Substance: A0A0E3SZN6_TRIUA: omega-gliadin protein of Triticum urartu (SEQ ID NO:1), produced recombinantly in E. coli (QPQQPYP)
- processing of the 9-mer core by chymotrypsin proteolysis (chymotrypsin): no destructive processing was observed of the postulated novel 9-mer core peptide

Substance: LQLQPFPQPELPYPQPELPYPQPELPYPQPQPF (SEQ ID NO:55) [33-mer, reference compound]
- expansion of IFN-γ positive CD4 T cells, healthy control [1]: no such expansion
- expansion of IFN-γ positive cells in the CD3+/CD4− cell population [2]: not seen
- peptide reactivity, CeD donor 585 [2, 3]: appeared to favor
- peptide reactivity, CeD donor 595 [2, 3]: about equal on both
- expansion of IFN-γ positive CD4 T cells, CeD donor [2]: 4.2%
- presence of response in tested CeD PBMC material ([2]; FIG. 15A): 2/3
- responses in healthy controls [2]: no responses

Substance: PQPELPYPQPE (SEQ ID NO:57) [DQ2.5-glia-α2, reference compound]
- binding of 107 antibody to peptide-pulsed Raji cells (FACS) (107 antibody): No binding
- binding of 4.7C antibody to peptide-pulsed Raji cells (FACS) (4.7C antibody): No binding

Substance: PQQPYPEQEQPYGT (SEQ ID NO:63) [EE]
- binding of 107 antibody to peptide-pulsed Raji cells (FACS) (107 antibody): bind well
- binding of 4.7C antibody to peptide-pulsed Raji cells (FACS) (4.7C antibody): bind well

Substance: PQQPYPEQQQPYGT (SEQ ID NO:62) [form of the peptide with E at position 4 of the 9-mer]
- binding of 107 antibody to peptide-pulsed Raji cells (FACS) (107 antibody): not

Substance: PQQPYPQQEQPYGT (SEQ ID NO:29)
- binding of 107 antibody to peptide-pulsed Raji cells (FACS) (107 antibody): bind well
- binding of 4.7C antibody to peptide-pulsed Raji cells (FACS) (4.7C antibody): bind well

Substance: PQQPYPQQQQPYGT (SEQ ID NO:24)
- binding of 107 antibody to peptide-pulsed Raji cells (FACS) (107 antibody): not

Substance: PYPQQEQPY (SEQ ID NO:25) [p6 deamidated 9-mer]
- binding of 107 antibody to peptide-pulsed Raji cells (FACS) (107 antibody): no binding
- binding of 4.7C antibody to peptide-pulsed Raji cells (FACS) (4.7C antibody): no binding

Substance: QPQQPYPQQEQPYGTSL (SEQ ID NO:30) [A0A0E3SZN6 peptide]
- expansion of IFN-γ positive CD4 T cells, healthy control [1]: no such expansion
- expansion of IFN-γ positive cells in the CD3+/CD4− cell population [2]: not seen
- peptide reactivity, CeD donor 600 [2, 3]: appeared to favor
- peptide reactivity, CeD donor 595 [2, 3]: about equal on both
- expansion of IFN-γ positive CD4 T cells, CeD donor [2]: 2.8%
- presence of response in tested CeD PBMC material ([2]; FIG. 15A): 2/3
- responses in healthy controls [2]: no responses
